Data from patent US7399748B2, “Antitumor therapy comprising distamycin derivatives” (Nerviano Medical Sciences S.r.l., priority 2001, dated 2008).

System: solid tumors
Experiment: Phase I trial, iv single administration every three weeks in patients with solid tumors
Assay type: in vivo
Settings: one patient suffering from gastrointestinal sarcoma, dose level 5.1 mg/m^2, iv single administration every three weeks
Protocol: A phase I pharmacological trial was carried out to investigate the iv administration of the title compound given as a single administration every three weeks to patients with solid tumors.
The starting dose of 0.85 mg/m^2 was initially escalated in an accelerated design (100% dose increase; 1 patient/dose level) and then by a conventional dose escalation in 3-6 patient cohorts. 11 patients have been entered so far and 25 cycles have been evaluated for toxicity at dose levels of 0.85, 1.7, 3.4, 5.1 and 7.5 mg/M^2.

C=C(Br)C(=O)Nc1cc(C(=O)Nc2cc(C(=O)Nc3cc(C(=O)Nc4cc(C(=O)NCCNC(=N)N)n(C)c4)n(C)c3)n(C)c2)n(C)c1.Cl [PNU 166196, N-(5-{[(5-{[(5-{[(2-{[amino(imino)methyl]amino}ethyl)amino]carbonyl}-1-methyl-1H-pyrrol-3-yl)amino]carbonyl}-1-methyl-1H-pyrrol-3-yl)amino]carbonyl}-1-methyl-1H-pyrrol-3-yl)-4-[(2-bromoacryloyl)amino]-11-methyl-1H-pyrrole-2-carboxamide hydrochloride]
tumor response: partial response
